Experimental findings from patent publication US7919480B2, “Polymers having covalently bound antibiotic agents” (Ethicon, Inc., priority 2007, dated 2011) are described below.

The test deals with S. aureus ATCC 6538. Nature of the test: log reduction assay (Example 4). The class given is cell-based. The procedure: Sample of ONM covalently bound to ORC (ORC-ONM-CV) from example 3 were tested for its in vitro efficacy by log reduction assay. In the log reduction assay, the test articles (squares of about 4.0 mg/piece) were challenged with about 1-2×10e4 CFU bacteria on the surface of the test articles for one hour. To facilitate the test of efficacy on surface of the test articles with covalent bound ONM, the inoculum was delivered in 10 ul/item, the small volume relative to the test articles allowed complete absorption of the inoculum by the test articles such that the inoculum localized on surfaces of the test articles. The inoculum was prepared in 20× potassium phosphate buffer, which maintained pH of the test articles close to neutral. The antimicrobial efficacy of ORC at neutral pH will be minimized, so that the log reduction would indicate the antibacterial efficacy of ONM rather than ORC. After the challenge, the test article was immersed in saline with shaking to remove survival bacteria and the survival bacteria were measured by plate count. The plate counts were conducted in trypticase soy agar and incubated at 37° C. for 24 hours.

For the setting “log CFU of inoculum − log CFU of treated, 1 h challenge”, POLYQUATERNIUM 1 [ONM control] displayed a log reduction of 4.2 log. Besides, the “log CFU” value (surviving bacteria after 1 h challenge with about 1-2x10e4 CFU, neutral pH) came to 0.3 log CFU.
